Assay results reported in patent US8383136B2, “Micelle encapsulation of therapeutic agents” (Wisconsin Alumni Research Foundation, priority 2009, dated 2013).
“And” between values parts separate entries of the source, which are not always exact repeats. Equal values may be shown once. “Also recorded” adds a separate entry of the source.

Tests used:
[1] = Physical stability / drug loss from PEG-b-PLA micelles after 24 hours (turbidity, HPLC); type: physicochemical
Experimental: Turbidity measurements were used to evaluate the physical stability of drug-loaded PEG-b-PLA micelles. A CARY 50 BIO UV-Visible spectrophotometer equipped with dip probe was used to measure turbidity. Micellar solutions were diluted six times, for a final concentration of PEG-b-PLA of 5 mg/mL, with DD H2O and filtered through 0.45 μm filter. […] Each measurement was performed in triplicate.

[2] = without micelles; cited from earlier work
[3] = tested on: MCF-7 human breast cancer cells; test: In vitro cytotoxicity, resazurin assay, and combination index; type: cell-based; conditions: Homo sapiens, MCF7, 72 h; read-out: IC50
Experimental: (§1) MCF-7 human breast cancer cells were cultured in DMEM medium while 4T1 murine breast cancer cells, A549 human non-small cell lung cancer cells, and LS180 human colon cancer cells were cultured in RPMI1640 medium. Both media were supplemented with 10% fetal bovine serum (FBS) with antibiotics under 5% CO2 and 37° C. in an incubator. […] Free drugs were dissolved in DMSO, and drug-loaded PEG-b-PLA micelles were in deionized water. The samples were diluted with cell culture media to make 0.10, 1.0, 10, 100 and 1000 nM in 96 well plates. […] The metabolic conversion of resazurin dye by each viable cancer cell was quantified using a fluorescence cell plate reader (SpectraMax M2, Molecular Devices, USA) to estimate cell viability. […] IC50 values of free drugs and drug-loaded PEG-b-PLA micelles were calculated based on median-effect equation using Compusyn software (ver. 1.0).
(§2) CI values were obtained at IC50 values for 2- or 3-drug combinations. CI<1, C=1, and CI>1 were used as criteria to determine whether 2- or 3-drug combinations are synergistic, additive, and antagonistic, respectively (FIGS. 13-20).

[4] = tested on: A549 human non-small cell lung cancer cells; test: as above; type: cell-based; conditions: drug(s) in SDM or MDM, 72 hours, unit inferred, PTX/17-AAG 4.7:1, RAP/17-AAG 1:1, RAP/PTX 1:1, RAP/PTX/17-AAG 1:5:1, read-out: IC50
Experimental: as §1, §2

[5] = Drug solubilization by PEG-b-PLA micelles (drug level in water, reverse phase HPLC); conditions: analyte paclitaxel, SDM or MDM, PEG-b-PLA (4.2K:1.9K) micelles
Experimental: The drug-polymer mixture was dissolved in 0.50 mL acetonitrile (ACN). The ACN was removed at 60° C. under reduced pressure on a rotary evaporator resulting in the formation of a homogenous film, The drug-polymer film was rehydrated with 0.50 mL of DD H2O at 60° C. with gentle agitation resulting in a clear solution of drug-loaded PEG-b-PLA micelles. The micellar solution was filtered using a 0.45 μm filter, and the micelles were characterized in terms of size and loading by Dynamic Light Scattering (DLS) and HPLC respectively.
MDMS were prepared similarly to the SDMs by mixing 2.0 mg of each drug with 15 mg of the polymer. The procedure for the preparation and characterization of these micelles was identical to the SDMs.
The content of drug loaded in PEG-b-PLA micelles was quantified by reverse phase HPLC. The HPLC system used for quantifying was a Shimadzu prominence HPLC system (Shimadzu, JP), consisting of a LC-20AT pump, SIL-20AC HT autosampler, CTO-20AC column oven and a SPD-M20A diode array detector. A sample of 10 μL was injected into a Zorbax SB-C8 Rapid Resolution cartridge (4.6×75 mm, 3.5 micron, Agilent). The column temperature was maintained at 40° C. throughout the run. Two HPLC methods were developed to quantify the amount of the drug(s) loaded in PEG-b-PLA micelles.
The mobile phase was an isocratic mixture of 45% ACN and 54% aqueous phase containing 0.1% phosphoric acid and 1% methanol in DD H2O.
The mobile phase was a gradient mixture of ACN and aqueous phase containing 0.1% phosphoric acid and 1% methanol in DD H2O. […] With both HPLC methods samples were injected twice and reproducible and rapid separation of the drugs was achieved.
Mn of PEG and PLA of PEG-b-PLA was 4,200 and 1,900 g/mol, respectively (APC Inc., UK). ACN was removed by heating at 60° C. and reduced pressure. The resultant dry polymer film containing anti-cancer agent(s) was dissolved by addition of water (0.50 mL) at 60° C. with gentle agitation.
The resultant dry PEG-b-PLA film containing drugs was dissolved by the addition of water (0.50 mL) at 60° C. with gentle agitation.

[6] = Acute toxicity experiments in FVB female albino mice; conditions: PEG-b-PLA micelles, 3 IV injections days 0, 4, 8; paclitaxel 60, 17-AAG 60, rapamycin 30 mg/kg
Experimental: Briefly, acute toxicity experiments were carried out in FVB female albino mice with 3 IV injections on days 0, 4, and 8, measuring body weights and monitoring survival over 12 days (FIG. 21).

[7] = tested on: 4T1 murine breast cancer cells; test: In vitro cytotoxicity, resazurin assay, and combination index; type: cell-based; conditions: drug(s) in SDM or MDM, 72 hours, unit inferred, PTX/17-AAG 4.7:1, RAP/17-AAG 1:1, RAP/PTX 1:1, RAP/PTX/17-AAG 1:5:1, read-out: IC50
Experimental: as §1, with “The samples were diluted with cell culture media to make 0.10, 1.0, 10, 100 and 1000 nM in 96 well plates.” left out
as §2

[8] = tested on: H-358 human non-small-cell lung cancer xenografts; conditions: combined with 17-AAG; cited from earlier work
[9] = % drug loading of PEG-b-PLA micelles (wt drug(s)/wt polymer); type: physicochemical; conditions: all drugs of the SDM or MDM together, PEG-b-PLA (4.2K:1.9K) micelles
Experimental: Drug(s) to polymer w/w percent was calculated for SDM and MDM. PEG-b-PLA micelles were freeze dried, weighed and the amount of drug(s) in the freeze dried sample was quantified by HPLC. The drug w/w percent was calculated as the mass of the drug(s) to the mass of polymer in the freeze dried sample multiplied by 100.

[10] = In vitro drug release from PEG-b-PLA micelles (dialysis method); type: physicochemical; conditions: SDM, dialysis; listed as PTX
Experimental: (§3) SDMs or MDMs were prepared and characterized as described above. Post micelle preparation each sample was diluted with DD H2O, to yield about 0.10 mg/mL of each drug. A volume of 2.5 mL of the prepared sample was loaded into a 3 mL Slide-A-Lyzer® (Thermo Scientific Inc.) dialysis cassette with a MWCO of 20,000 g/mol. Four cassettes were used in each experiment. The cassettes were placed in 2.0 L of buffer which was changed every 3 hours to ensure sink conditions for drug(s) and polymer. A sample of 100 μL was drawn from each cassette at various sampling time intervals and then replaced with 100 μL of fresh buffer. […] The amount of drug(s) in each sample was quantified by HPLC as described above.
Statistical analysis was performed using one-way ANOVA at 5% significance level combined with Tukey's Multiple Comparison Test or t-test at 5% significance level. Curve-fitting analysis using one phase exponential association was used to calculate the half-life (t1/2) of drug in in vitro drug release experiments. Both analyses were performed using GraphPad Prism version 5.00 for Windows, Graph-Pad Software, San Diego Calif. USA, www.graphpad.com.
as §3, with “Post-micelle preparation,” for “Post micelle preparation”, “yield samples of” for “yield”, “reverse phase HPLC.” for “HPLC as described above.”

[11] = Dynamic light scattering size of SDM and MDM; type: physicochemical; conditions: DLS, drug-loaded SDM or MDM
Experimental: The drug-loaded micellar solutions were diluted 20 times with DD H2O and the samples was equilibrated for 2 min at 25° C. before the measurements. […] The hydrodynamic diameter of PEG-b-PLA micelles was calculated based on the Stokes-Einstein equation. Correlation function was curve fitted by cumulant method to calculate mean size and polydispersion index (PDI). All measurements were repeated three times, and volume-weighted particle sizes were presented as the average diameter with standard deviation.

[12] = analyte paclitaxel, PEG-b-PLA micelles

SMILES: CC(=O)O[C@H]1C(=O)[C@@]2(C)[C@H]([C@H](OC(=O)c3ccccc3)[C@]3(O)C[C@H](OC(=O)[C@H](O)[C@@H](NC(=O)c4ccccc4)c4ccccc4)C(C)=C1C3(C)C)[C@]1(OC(C)=O)CO[C@@H]1C[C@@H]2O [Paclitaxel]
- drug precipitated at 24 hours ([1]; SDM, HPLC data): approximately 84%
- % w/w drug(s) left @ 24 hr [1, 12]: 16.2 ± 1.0 % w/w
- initial drug level in water [1, 12]: 3.54 ± 0.32 mg/mL
- drug level @ 24 hr in water ([1]; analyte paclitaxel, PEG-b-PLA micelles, 24 hr): 570 ± 70 µg/mL
- time the micelles were physically stable ([1]; turbidity, ambient temperature): approximately 6 hours
- solubility of paclitaxel in water [2]: approximately 1 μg/mL
- IC50 [3]: 0.226 ± 0.032 µM
- IC50 [4]: 0.397 ± 0.059 µM
- drug level in water [5]: 3540 ± 320 µg/mL
- drug level in water ([5]; listed as PTX): 3500 µg/mL
- acute toxicity [6]: low
- IC50 [7]: 11.2 ± 4.16 µM
- enhancement of PTX cytotoxicity [8]: 5-22 fold
- % drug loading (wt. drug(s)/wt. polymer) [9]: 11.8 ± 1.1% and 10.3 ± 0.9%
- % drug loading (wt. drug(s)/wt. polymer) ([9]; listed as PTX): 10.3%
- behaviour of PTX during the release test [10]: Rapid precipitation; also recorded: precipitated during release
- PEG-b-PLA micelle diameter [11]: 38.8 ± 0.6 nm
